The values that follow come from ChEMBL document CHEMBL3120145, “Interaction kinetics of liposome-incorporated unsaturated fatty acids with fatty acid-binding protein 3 by surface plasmon resonance” (Bioorg Med Chem, 2014).

Assay [1] concerns the target T1, Fatty acid-binding protein, heart (Homo sapiens, UniProt P05413). In words: Binding affinity to human FABP3 expressed in Escherichia coli BL21 (DE3) at 60 uM by surface plasmon resonance analysis.
Assay [2] deals with T1, Fatty acid-binding protein, heart. Put plainly: Binding affinity to human FABP3 expressed in Escherichia coli BL21 (DE3) at 10 uM in DMPC liposomes by surface plasmon resonance analysis.
Assay [3] has the same target. Put plainly: Binding affinity to human FABP3 expressed in Escherichia coli BL21 (DE3) in DMPC liposomes by surface plasmon resonance analysis. In general terms: SPR reads the build-up and loss of mass on a sensor chip optically.

Each structure is given as a SMILES string.

T1 sequence (P05413 whole entry): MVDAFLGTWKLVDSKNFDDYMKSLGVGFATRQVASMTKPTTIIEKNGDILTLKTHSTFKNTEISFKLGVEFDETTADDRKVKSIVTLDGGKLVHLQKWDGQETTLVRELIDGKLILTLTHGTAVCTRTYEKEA

What is called Kd is the concentration at which binding is half-saturated. Read a high Kd as weaker binding. In the case of `CCCCCCCCCCCCCC(=O)OC[C@H](COP(=O)(O)OCC[N+](C)(C)C)OC(=O)CCCCCCCCCCCCC`, binding in assay [1] was put at a Kd of 3.6 nM.
Consider `CCCCCCCCCCC/C=C\CCCCC(=O)O`, for which the figures for the equilibrium dissociation constant (Kd) in assay [2] and in assay [1] were 401 nM and 54200 nM, respectively.
For `CC/C=C\C/C=C\C/C=C\CCCCCCCC(=O)O`, in assay [3], the dissociation constant Kd was 2.76 nM.
